# From article PMC10850145, “Hormonal steroids induce multidrug resistance and stress response genes in Neisseria gonorrhoeae by binding to MtrR” (Nature Communications, 2024)
# Where “and” joins values, the source holds several entries; their conditions need not be identical. Identical values can stand only once. Like-named read-outs stand apart in the source and are kept apart here.
# Test system: mtrC-lacZ expression
# Assay type: cell-based, Neisseria gonorrhoeae
# Details: for Miller units, Mean: mtrCDE, ΔmtrR, left block Plate-4; for β-galactosidase activity, Miller units (single replicate) / β-galactosidase activity, individual replicate: mtrR WT in cis; for β-galactosidase activity, individual replicate: single replicate values, second (right) block; for Miller units: single well; for mtrC-lacZ β-galactosidase activity, Mean: left block of sheet (mtrCDE)
# [1] = second block of sheet (c39-c76), ΔmtrR + mtrR R176E in trans, 6.25 µM
# [2] = second block of sheet (c39-c76), ΔmtrR + mtrR R176E in trans, 12.5 µM
# [3] = second block of sheet (c39-c76), ΔmtrR + mtrR R176E in trans, 25 µM
# [4] = second block of sheet (c39-c76), ΔmtrR + mtrR R176E in trans, 50 µM
structure (smiles),measurement,setting,value
"C[C@]12CC[C@H]3[C@@H](CCC4=CC(=O)CC[C@@]43C)[C@@H]1CC[C@@H]2O [Testosterone, testosterone]","Miller units, Mean",testosterone 50 µM,284 Miller units
same,"Miller units, Mean",testosterone 100 µM,369 Miller units
same,"β-galactosidase activity, Miller units (single replicate)","1 µM, first data set (c15-c36)",149 Miller units and 125 Miller units and 138 Miller units and 141 Miller units
same,"β-galactosidase activity, individual replicate",6.25 µM hormone,103 Miller units and 88 Miller units
same,"β-galactosidase activity, Miller units (single replicate)","6.25 µM, second data set (c53-c74)",73 Miller units and 58 Miller units
same,"β-galactosidase activity, Miller units (single replicate)","10 µM, first data set (c15-c36)",251 Miller units and 213 Miller units and 245 Miller units and 230 Miller units
same,"β-galactosidase activity, individual replicate",12.5 µM hormone,126 Miller units
same,"β-galactosidase activity, Miller units (single replicate)","12.5 µM, second data set (c53-c74)",92 Miller units and 94 Miller units
same,"β-galactosidase activity, individual replicate",25 µM hormone,144 Miller units and 138 Miller units
same,"β-galactosidase activity, Miller units (single replicate)","25 µM, first data set (c15-c36)",283 Miller units and 251 Miller units and 242 Miller units and 281 Miller units
same,"β-galactosidase activity, Miller units (single replicate)","25 µM, second data set (c53-c74)",129 Miller units and 111 Miller units
same,"β-galactosidase activity, individual replicate",50 µM hormone,161 Miller units and 150 Miller units
same,"β-galactosidase activity, Miller units (single replicate)","50 µM, first data set (c15-c36)",237 Miller units and 229 Miller units and 224 Miller units and 225 Miller units
same,"β-galactosidase activity, Miller units (single replicate)","50 µM, second data set (c53-c74)",118 Miller units and 110 Miller units
same,"β-galactosidase activity, Miller units (single replicate)","100 µM, first data set (c15-c36)",228 Miller units and 230 Miller units and 281 Miller units and 254 Miller units
same,"β-galactosidase activity, Mean",[1],60 Miller units
same,"β-galactosidase activity, single replicate",[1],66 Miller units and 62 Miller units and 61 Miller units and 50 Miller units
same,"β-galactosidase activity, Mean",[2],68 Miller units
same,"β-galactosidase activity, single replicate",[2],65 Miller units and 76 Miller units and 70 Miller units and 59 Miller units
same,"β-galactosidase activity, Mean",[3],80 Miller units
same,"β-galactosidase activity, single replicate",[3],70 Miller units and 77 Miller units and 92 Miller units and 80 Miller units
same,"β-galactosidase activity, Mean",[4],83 Miller units
same,"β-galactosidase activity, single replicate",[4],89 Miller units and 78 Miller units and 94 Miller units and 70 Miller units
same,Miller units,"plate rows 1-4, plate columns 1-6 (first strain), 6.25 µM hormone",96 Miller units and 59 Miller units and 65 Miller units and 57 Miller units
same,Miller units,"plate rows 1-4, plate columns 1-6 (first strain), 12.5 µM hormone",116 Miller units and 66 Miller units and 73 Miller units and 70 Miller units
same,Miller units,"plate rows 1-4, plate columns 1-6 (first strain), 25 µM hormone",132 Miller units and 102 Miller units and 83 Miller units and 75 Miller units
same,Miller units,"plate rows 1-4, plate columns 1-6 (first strain), 50 µM hormone",147 Miller units and 111 Miller units and 107 Miller units and 103 Miller units
same,Miller units,"plate rows 1-4, plate columns 7-12 (second strain), 6.25 µM hormone",119 Miller units and 100 Miller units and 89 Miller units and 76 Miller units
same,Miller units,"plate rows 1-4, plate columns 7-12 (second strain), 12.5 µM hormone",126 Miller units and 101 Miller units and 100 Miller units and 81 Miller units
same,Miller units,"plate rows 1-4, plate columns 7-12 (second strain), 25 µM hormone",155 Miller units and 122 Miller units and 93 Miller units and 79 Miller units
same,Miller units,"plate rows 1-4, plate columns 7-12 (second strain), 50 µM hormone",151 Miller units and 132 Miller units and 101 Miller units and 93 Miller units
same,"β-galactosidase activity, mtrC-lacZ, Mean","strain WT (FA19/pLES94-mtrC), hormone 6.25 µM",141 Miller units
same,"β-galactosidase activity, mtrC-lacZ, Mean","strain WT (FA19/pLES94-mtrC), hormone 12.5 µM",166 Miller units
same,"β-galactosidase activity, mtrC-lacZ, Mean","strain WT (FA19/pLES94-mtrC), hormone 25 µM",178 Miller units
same,"β-galactosidase activity, mtrC-lacZ, Mean","strain WT (FA19/pLES94-mtrC), hormone 50 µM",195 Miller units
same,"mtrC-lacZ β-galactosidase activity, Mean","strain WT, 1 µM hormone",138 Miller units
same,"β-galactosidase activity, Mean","strain WT, 6.25 µM hormone, second (right) untitled block of sheet Figure S10 (mtrC)",81 Miller units
same,"mtrC-lacZ β-galactosidase activity, Mean","strain WT, 10 µM hormone",235 Miller units
same,"mtrC-lacZ β-galactosidase activity, Mean","strain WT, 25 µM hormone",264 Miller units
same,"β-galactosidase activity, Mean","strain WT, 25 µM hormone, second (right) untitled block of sheet Figure S10 (mtrC)",130 Miller units
same,"mtrC-lacZ β-galactosidase activity, Mean","strain WT, 50 µM hormone",229 Miller units
same,"β-galactosidase activity, Mean","strain WT, 50 µM hormone, second (right) untitled block of sheet Figure S10 (mtrC)",134 Miller units
same,"mtrC-lacZ β-galactosidase activity, Mean","strain WT, 100 µM hormone",248 Miller units
same,activation of mtrC,strain producing MtrR R176E,significantly less activation
same,"β-galactosidase activity, mtrC-lacZ, Mean","strain ΔmtrR (FA19 ∆mtrR/pLES94-mtrC), hormone 6.25 µM",265 Miller units
same,"β-galactosidase activity, mtrC-lacZ, Mean","strain ΔmtrR (FA19 ∆mtrR/pLES94-mtrC), hormone 12.5 µM",244 Miller units
same,"β-galactosidase activity, mtrC-lacZ, Mean","strain ΔmtrR (FA19 ∆mtrR/pLES94-mtrC), hormone 25 µM",276 Miller units
same,"β-galactosidase activity, mtrC-lacZ, Mean","strain ΔmtrR (FA19 ∆mtrR/pLES94-mtrC), hormone 50 µM",272 Miller units
same,"β-galactosidase activity, mtrC-lacZ, Mean","strain ΔmtrR + mtrR D171A (pGCC3-mtrR D171A), hormone 6.25 µM",170 Miller units
same,"β-galactosidase activity, mtrC-lacZ, Mean","strain ΔmtrR + mtrR D171A (pGCC3-mtrR D171A), hormone 12.5 µM",175 Miller units
same,"β-galactosidase activity, mtrC-lacZ, Mean","strain ΔmtrR + mtrR D171A (pGCC3-mtrR D171A), hormone 25 µM",170 Miller units
same,"β-galactosidase activity, mtrC-lacZ, Mean","strain ΔmtrR + mtrR D171A (pGCC3-mtrR D171A), hormone 50 µM",162 Miller units
same,"mtrC-lacZ β-galactosidase activity, Mean","strain ΔmtrR + mtrR R176E, 1 µM hormone",178 Miller units
same,"β-galactosidase activity, Mean","strain ΔmtrR + mtrR R176E, 6.25 µM hormone, second (right) untitled block of sheet Figure S10 (mtrC)",60 Miller units
same,"mtrC-lacZ β-galactosidase activity, Mean","strain ΔmtrR + mtrR R176E, 10 µM hormone",206 Miller units
same,"β-galactosidase activity, Mean","strain ΔmtrR + mtrR R176E, 12.5 µM hormone, second (right) untitled block of sheet Figure S10 (mtrC)",68 Miller units
same,"β-galactosidase activity, Mean","strain ΔmtrR + mtrR R176E, 25 µM hormone, second (right) untitled block of sheet Figure S10 (mtrC)",80 Miller units
